Data reported in article PMC9090415, “Discovery of small molecule inhibitors of Plasmodium falciparum apicoplast DNA polymerase” (Journal of Enzyme Inhibition and Medicinal Chemistry, 2022).

Target: P. falciparum apicoplast DNA polymerase (Pf-apPOL) (Plasmodium falciparum, UniProt Q8ILY1)
Assay: Fluorescence-based high-throughput DNA polymerase assay (molecular beacon), primary screen and dose-response
Type: biochemical
Conditions: for DNA Pol: 90 min, 10 µM; for % inhibition apPOL 180' 2.5 / % inhibition apPOL 180' 5 / % inhibition apPOL 180' 10 / % inhibition apPOL 180' 20 / % inhibition apPOL 180' 40 / % inhibition apPOL 180' 80: read at 180'
How it was run: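 Single-point screening used 10 µM compound with 20 nM polymerase, 20 nM hairpin substrate and 6 µM dNTPs for 90 min at 25 °C. Confirmatory titrations (2.5–80 µM) followed fluorescence at three times, and IC50 was derived from a fit including a cooperativity term n.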

Sequence of P. falciparum apicoplast DNA polymerase (Pf-apPOL) (Q8ILY1 entry or part of it): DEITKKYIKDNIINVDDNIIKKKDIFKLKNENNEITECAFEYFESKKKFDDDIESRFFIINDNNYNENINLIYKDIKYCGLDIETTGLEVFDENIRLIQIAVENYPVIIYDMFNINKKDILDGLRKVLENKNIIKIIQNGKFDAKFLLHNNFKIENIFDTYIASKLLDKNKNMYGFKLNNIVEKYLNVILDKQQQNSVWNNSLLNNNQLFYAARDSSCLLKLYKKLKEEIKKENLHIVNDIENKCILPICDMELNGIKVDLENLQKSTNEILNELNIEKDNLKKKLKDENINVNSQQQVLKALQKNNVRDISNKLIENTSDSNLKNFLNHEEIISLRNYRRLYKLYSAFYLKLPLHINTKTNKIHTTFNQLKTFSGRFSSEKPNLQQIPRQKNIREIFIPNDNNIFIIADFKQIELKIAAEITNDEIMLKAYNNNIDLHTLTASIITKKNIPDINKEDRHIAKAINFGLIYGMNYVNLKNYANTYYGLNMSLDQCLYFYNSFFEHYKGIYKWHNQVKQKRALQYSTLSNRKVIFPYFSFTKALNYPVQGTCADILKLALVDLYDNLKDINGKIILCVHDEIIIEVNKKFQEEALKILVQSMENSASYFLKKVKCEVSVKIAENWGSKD

`Cc1cc2[nH]c(C(=O)Nc3ccc(F)cc3)c(CN3CCOCC3)c2s1` [Molecule 60, Fc1ccc(cc1)NC(=O)c1[nH]c2c(c1CN1CCOCC1)sc(c2)C] was tested, and the “DNA Pol” value (186 hits, DNA Pol (screen value), unit not given) was 24, the “DNA Pol” value ('DNA Pol' (screen value), unit not given) was 24 and the “% inhibition Apo pol 10' 2.5” value (DRC-1, read at 10', concentration 2.5) was -2.4883%. For the same compound, the “% inhibition Apo pol 10' 5” value (DRC-1, read at 10', concentration 5) was 6.203%, the “% inhibition Apo pol 10' 10” value (DRC-1, read at 10', concentration 10) was 25.0572% and the “% inhibition Apo pol 10' 20” value (DRC-1, read at 10', concentration 20) was 44.6815%. For the same compound, the “% inhibition Apo pol 10' 40” value (DRC-1, read at 10', concentration 40) was 69.9494%, the “% inhibition Apo pol 10' 80” value (DRC-1, read at 10', concentration 80) was 76.8011% and the “% inhibition Apol 90' 2.5” value (DRC-1, read at 90', concentration 2.5) was -5.041%. For the same compound, the “% inhibition Apol 90' 5” value (DRC-1, read at 90', concentration 5) was 0.952%, the “% inhibition Apol 90' 10” value (DRC-1, read at 90', concentration 10) was 13.5518% and the “% inhibition Apol 90' 20” value (DRC-1, read at 90', concentration 20) was 29.567%. The “% inhibition Apol 90' 40” value (DRC-1, read at 90', concentration 40) was 56.5635%, the “% inhibition Apol 90' 80” value (DRC-1, read at 90', concentration 80) was 73.0205% and the “% inhibition apPOL 180' 2.5” value (DRC-1, concentration 2.5) was -7.929%. The “% inhibition apPOL 180' 5” value (DRC-1, concentration 5) was -4.0377%, the “% inhibition apPOL 180' 10” value (DRC-1, concentration 10) was 4.226% and the “% inhibition apPOL 180' 20” value (DRC-1, concentration 20) was 14.1958%. The “% inhibition apPOL 180' 40” value (DRC-1, concentration 40) was 39.4222%, the “% inhibition apPOL 180' 80” value (DRC-1, concentration 80) was 63.0707% and the “% inhibition Apo pol 5'” value (DRC-2, concentration 40) was 38%. The “% inhibition ApPOL 90'” value (DRC-2, concentration 20) was 38%, the “% inhibition Apo pol 5' 2.5” value (DRC-2, read at 5', concentration 2.5) was -2.34% and the “% inhibition Apo pol 5' 5” value (DRC-2, read at 5', concentration 5) was 3.5%. The “% inhibition Apo pol 5' 10” value (DRC-2, read at 5', concentration 10) was 20%, the “% inhibition Apo pol 5' 20” value (DRC-2, read at 5', concentration 20) was 33% and the “% inhibition Apo pol 5' 40” value (DRC-2, read at 5', concentration 40) was 38%. For the same compound, the “% inhibition Apo pol 5' 80” value (DRC-2, read at 5', concentration 80) was 36%, the “% inhibition Apol 40' 2.5” value (DRC-2, read at 40', concentration 2.5) was 0.384% and the “% inhibition Apol 40' 5” value (DRC-2, read at 40', concentration 5) was 3.72%. For the same compound, the “% inhibition Apol 40' 10” value (DRC-2, read at 40', concentration 10) was 21%, the “% inhibition Apol 40' 20” value (DRC-2, read at 40', concentration 20) was 40% and the “% inhibition Apol 40' 40” value (DRC-2, read at 40', concentration 40) was 57%. The “% inhibition Apol 40' 80” value (DRC-2, read at 40', concentration 80) was 60%, the “% inhibition ApPOL 90' 2.5” value (DRC-2, read at 90', concentration 2.5) was 0.312% and the “% inhibition ApPOL 90' 5” value (DRC-2, read at 90', concentration 5) was 2.6%. The “% inhibition ApPOL 90' 10” value (DRC-2, read at 90', concentration 10) was 18%, the “% inhibition ApPOL 90' 20” value (DRC-2, read at 90', concentration 20) was 38% and the “% inhibition ApPOL 90' 40” value (DRC-2, read at 90', concentration 40) was 59%. The “% inhibition ApPOL 90' 80” value (DRC-2, read at 90', concentration 80) was 65%, the “% inhibition apPOL 180' 2.5” value (DRC-2, concentration 2.5) was -2.7% and the “% inhibition apPOL 180' 5” value (DRC-2, concentration 5) was -0.247%. For the same compound, the “% inhibition apPOL 180' 10” value (DRC-2, concentration 10) was 11%, the “% inhibition apPOL 180' 20” value (DRC-2, concentration 20) was 28% and the “% inhibition apPOL 180' 40” value (DRC-2, concentration 40) was 53%. For the same compound, the “% inhibition apPOL 180' 80” value (DRC-2, concentration 80) was 66%.

For `Cc1ccccc1C(=O)N1CCc2c(nc3cc(-c4ccccc4)[nH]n3c2=O)C1` [Molecule 41, Cc1ccccc1C(=O)N1CCc2c(C1)nc1n(c2=O)[nH]c(c1)c1ccccc1], the “DNA Pol” value ('DNA Pol' of the 186 hits list (primary screen value)) was 47, the “DNA Pol” value (DNA Pol (primary screen value)) was 47 and the “% inhibition Apo pol 10'” value (DRC-1, concentration 2.5) was 6.184%. The “% inhibition Apo pol 10'” value (DRC-1, concentration 5) was 10.1754%, the “% inhibition Apo pol 10'” value (DRC-1, concentration 10) was 45.445% and the “% inhibition Apo pol 10'” value (DRC-1, concentration 20) was 74.5975%. For the same compound, the “% inhibition Apo pol 10'” value (DRC-1, concentration 40) was 80.8347%, the “% inhibition Apo pol 10'” value (DRC-1, concentration 80) was 67.5135% and the “% inhibition Apol 90'” value (DRC-1, concentration 2.5) was 1.828%. For the same compound, the “% inhibition Apol 90'” value (DRC-1, concentration 5) was 3.445%, the “% inhibition Apol 90'” value (DRC-1, concentration 10) was 31.8176% and the “% inhibition Apol 90'” value (DRC-1, concentration 20) was 59.5671%. For the same compound, the “% inhibition Apol 90'” value (DRC-1, concentration 40) was 74.5448%, the “% inhibition Apol 90'” value (DRC-1, concentration 80) was 71.589% and the “% inhibition apPOL 180'” value (DRC-1, concentration 2.5) was -1.511%. The “% inhibition apPOL 180'” value (DRC-1, concentration 5) was -3.248%, the “% inhibition apPOL 180'” value (DRC-1, concentration 10) was 20.9007% and the “% inhibition apPOL 180'” value (DRC-1, concentration 20) was 43.9765%. The “% inhibition apPOL 180'” value (DRC-1, concentration 40) was 64.8377%, the “% inhibition apPOL 180'” value (DRC-1, concentration 80) was 65.5415% and the “% inhibition Apo pol 5'” value (DRC-2, concentration 2.5) was 7%. For the same compound, the “% inhibition Apo pol 5'” value (DRC-2, concentration 5) was 8%, the “% inhibition Apo pol 5'” value (DRC-2, concentration 10) was 20% and the “% inhibition Apo pol 5'” value (DRC-2, concentration 20) was 17%. The “% inhibition Apo pol 5'” value (DRC-2, concentration 40) was 46%, the “% inhibition Apo pol 5'” value (DRC-2, concentration 80) was 29% and the “% inhibition Apol 40'” value (DRC-2, concentration 2.5) was 9%. For the same compound, the “% inhibition Apol 40'” value (DRC-2, concentration 5) was 5.58%, the “% inhibition Apol 40'” value (DRC-2, concentration 10) was 22% and the “% inhibition Apol 40'” value (DRC-2, concentration 20) was 18%. The “% inhibition Apol 40'” value (DRC-2, concentration 40) was 61%, the “% inhibition Apol 40'” value (DRC-2, concentration 80) was 54% and the “% inhibition ApPOL 90'” value (DRC-2, concentration 2.5) was 8%. The “% inhibition ApPOL 90'” value (DRC-2, concentration 5) was 5%, the “% inhibition ApPOL 90'” value (DRC-2, concentration 10) was 21% and the “% inhibition ApPOL 90'” value (DRC-2, concentration 20) was 17%. For the same compound, the “% inhibition ApPOL 90'” value (DRC-2, concentration 40) was 61%, the “% inhibition ApPOL 90'” value (DRC-2, concentration 80) was 59% and the “% inhibition apPOL 180'” value (DRC-2, concentration 2.5) was 4.5%. The “% inhibition apPOL 180'” value (DRC-2, concentration 5) was 1.21%, the “% inhibition apPOL 180'” value (DRC-2, concentration 10) was 16% and the “% inhibition apPOL 180'” value (DRC-2, concentration 20) was 9%. The “% inhibition apPOL 180'” value (DRC-2, concentration 40) was 55% and the “% inhibition apPOL 180'” value (DRC-2, concentration 80) was 58%.
